From patent US6770596B1, “Fused tricyclic compounds, process for their preparation, and herbicidal compositions containing them” (Ishihara Sangyo Kaisha Ltd., priority 2002, dated 2004)

Legend:
Type in all cases: in vivo
[1] = system: ivyleaf morningglory (Ipomoea hederacea, IPH); test: Post-emerge test, ivyleaf morningglory; details: 250 g ai/ha, 14 days after application, rating scale 0-100 (0 no damage, 100 complete death)
Procedure, shortened: (§1)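 Scores use a 0-100 visual scale, where 100 is complete plant death, rated 14 days post-treatment. Foliar application at 8-1000 g ai/ha, acetone solution at 187 l/ha with 0.25% v/v non-ionic surfactant. Plants grown 8-21 days, typically 2-3 leaf stage.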

[2] = system: barnyardgrass (Echinachloa crus-galli, ECC); test: Post-emerge test, barnyardgrass; details: 250 g ai/ha, 14 days after application, rating scale 0-100 (0 no damage, 100 complete death)
Procedure, shortened: as §1

[3] = system: velvetleaf (Abutilon theophrasti, ABT); test: Post-emerge test, velvetleaf; details: 250 g ai/ha, 14 days after application, rating scale 0-100 (0 no damage, 100 complete death)
Procedure, shortened: as §1

[4] = system: field corn (Zea mays L., var. Dekalb 535, CORN); test: Post-emerge test, crop damage field corn
Procedure, shortened: as §1

[5] = system: green foxtail (Setaria viridis, SEV); test: Pre-emerge test, green foxtail; details: 250 g ai/ha, 14 days after application, rating scale 0-100 (0 no damage, 100 complete death)
Procedure, shortened: (§2)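 Pre-emerge greenhouse screen: sow, wait 1 d, spray acetone solution (8–1000 g ai/ha, 187 l/ha), rate injury 0–100 at 14 DAT.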

[6] = system: large crabgrass (Digitaria sanguinalis, DIS); test: Pre-emerge test, large crabgrass; details: 250 g ai/ha, 14 days after application, rating scale 0-100 (0 no damage, 100 complete death)
Procedure, shortened: as §2

[7] = system: field corn (Zea mays L., var. Dekalb 535, CORN); test: Pre-emerge test, crop damage field corn
Procedure, shortened: (§3)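 Using a track sprayer with flat fan nozzle, acetone solutions were applied at 8–1000 g ai/ha to sandy loam pots sown one day before. Plant injury was rated visually 0–100 after 14 days.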

[8] = system: soybean (Glycine max L., var. Pella 86, SOY); test: Post-emerge test, crop damage soybean
Procedure, shortened: as §1

[9] = system: johnsongrass (Sorghum halepense, SOH); test: Post-emerge test, johnsongrass; details: 250 g ai/ha, 14 days after application, rating scale 0-100 (0 no damage, 100 complete death)
Procedure, shortened: as §1

[10] = system: cocklebur (Xanthium strumariunt, XAS); test: Post-emerge test, cocklebur; details: 250 g ai/ha, 14 days after application, rating scale 0-100 (0 no damage, 100 complete death)
Procedure, shortened: as §1

[11] = system: ivyleaf morningglory (Ipomoea hederacea, IPH); test: Pre-emerge test, ivyleaf morningglory; details: 250 g ai/ha, 14 days after application, rating scale 0-100 (0 no damage, 100 complete death)
Procedure, shortened: as §2

[12] = system: green foxtail (Setaria viridis, SEV); test: Post-emerge test, green foxtail; details: 250 g ai/ha, 14 days after application, rating scale 0-100 (0 no damage, 100 complete death)
Procedure, shortened: as §1

[13] = system: wheat (Triticum aestivum); test: Pre-emerge test, crop damage wheat
Procedure, shortened: as §3

[14] = system: common ragweed (Ambrosia artemisiifolia L., AML); test: Pre-emerge test, common ragweed; details: 250 g ai/ha, 14 days after application, rating scale 0-100 (0 no damage, 100 complete death)
Procedure, shortened: as §2

[15] = system: large crabgrass (Digitaria sanguinalis, DIS); test: Post-emerge test, large crabgrass; details: 250 g ai/ha, 14 days after application, rating scale 0-100 (0 no damage, 100 complete death)
Procedure, shortened: as §1

[16] = system: upland rice (Oryza sp., var.Tebonnet, RICE); test: Post-emerge test, crop damage upland rice
Procedure, shortened: as §1

[17] = system: sicklepod (Cassia obtusifolia, CAO); test: Pre-emerge test, sicklepod; details: 250 g ai/ha, 14 days after application, rating scale 0-100 (0 no damage, 100 complete death)
Procedure, shortened: as §2

[18] = system: johnsongrass (Sorghum halepense, SOH); test: Pre-emerge test, johnsongrass; details: 250 g ai/ha, 14 days after application, rating scale 0-100 (0 no damage, 100 complete death)
Procedure, shortened: as §2

[19] = system: lambsquarters (Chenopodium album, CHA); test: Pre-emerge test, lambsquarters; details: 250 g ai/ha, 14 days after application, rating scale 0-100 (0 no damage, 100 complete death)
Procedure, shortened: as §2

[20] = system: redroot pigweed (Amaranthus retroflexus, AMR); test: Post-emerge test, redroot pigweed; details: 250 g ai/ha, 14 days after application, rating scale 0-100 (0 no damage, 100 complete death)
Procedure, shortened: as §1

[21] = system: barnyardgrass (Echinachloa crus-galli, ECC); test: Pre-emerge test, barnyardgrass; details: 250 g ai/ha, 14 days after application, rating scale 0-100 (0 no damage, 100 complete death)
Procedure, shortened: as §2

[22] = system: velvetleaf (Abutilon theophrasti, ABT); test: Pre-emerge test, velvetleaf; details: 250 g ai/ha, 14 days after application, rating scale 0-100 (0 no damage, 100 complete death)
Procedure, shortened: as §2

[23] = system: sicklepod (Cassia obtusifolia, CAO); test: Post-emerge test, sicklepod; details: 250 g ai/ha, 14 days after application, rating scale 0-100 (0 no damage, 100 complete death)
Procedure, shortened: as §1

[24] = system: wheat (Triticum aestivum); test: Post-emerge test, crop damage wheat
Procedure, shortened: as §1

[25] = system: common ragweed (Ambrosia artemisiifolia L., AML); test: Post-emerge test, common ragweed; details: 250 g ai/ha, 14 days after application, rating scale 0-100 (0 no damage, 100 complete death)
Procedure, shortened: as §1

[26] = system: upland rice (Oryza sp., var.Tebonnet, RICE); test: Pre-emerge test, crop damage upland rice
Procedure, shortened: as §3

[27] = system: lambsquarters (Chenopodium album, CHA); test: Post-emerge test, lambsquarters; details: 250 g ai/ha, 14 days after application, rating scale 0-100 (0 no damage, 100 complete death)
Procedure, shortened: as §1

[28] = system: soybean (Glycine max L., var. Pella 86, SOY); test: Pre-emerge test, crop damage soybean
Procedure, shortened: as §3

[29] = system: cocklebur (Xanthium strumariunt, XAS); test: Pre-emerge test, cocklebur; details: 250 g ai/ha, 14 days after application, rating scale 0-100 (0 no damage, 100 complete death)
Procedure, shortened: as §2

[30] = system: redroot pigweed (Amaranthus retroflexus, AMR); test: Pre-emerge test, redroot pigweed; details: 250 g ai/ha, 14 days after application, rating scale 0-100 (0 no damage, 100 complete death)
Procedure, shortened: as §2

[31] = post-emerge, 250 g ai/ha, 14 days after application, rating scale 0-100 (0 no damage, 100 complete death)
[32] = pre-emerge, 250 g ai/ha, 14 days after application, rating scale 0-100 (0 no damage, 100 complete death)
[33] = var. Dekalb 535, Zea mays (field corn), in vivo, 14 days
[34] = var. Pella 86, Glycine max (soybean), in vivo, 14 days
[35] = Triticum aestivum (wheat), in vivo, 14 days
[36] = var. Tebonnet, Oryza sp. (upland rice), in vivo, 14 days

Structure (SMILES): O=C1CN2C(=O)COc3cc(F)c(N4C(=O)C5=C(CCCC5)C4=O)c(c32)N1 [1-37, 9-Flouro-8-(4,5,6,7-tetrahydro-2H-isoindole-1,3-dione-2-yl)-5H-pyrazino[1,2,3de]-1,4-benzoxazine-3,6(2H, 7H)-dione]
- Post-emerge Herbicidal Activity IPH (phytotoxicity rating) [1]: 100
- Post-emerge Herbicidal Activity ECC (phytotoxicity rating) [2]: 60
- Post-emerge Herbicidal Activity ABT (phytotoxicity rating) [3]: 100
- Post-emerge crop damage CORN (phytotoxicity rating) [4, 31]: 35
- Pre-emerge Herbicidal Activity SEV (phytotoxicity rating) [5]: 0
- Pre-emerge Herbicidal Activity DIS (phytotoxicity rating) [6]: 40
- Pre-emerge crop damage CORN (phytotoxicity rating) [7, 32]: 15
- Post-emerge crop damage SOY (phytotoxicity rating) [8, 31]: 55
- Post-emerge Herbicidal Activity SOH (phytotoxicity rating) [9]: 50
- Post-emerge Herbicidal Activity XAS (phytotoxicity rating) [10]: 95
- Pre-emerge Herbicidal Activity IPH (phytotoxicity rating) [11]: 85
- Post-emerge Herbicidal Activity SEV (phytotoxicity rating) [12]: 75
- Pre-emerge crop damage WHEAT (phytotoxicity rating) [13, 32]: 20
- Pre-emerge Herbicidal Activity AML (phytotoxicity rating) [14]: 98
- Post-emerge Herbicidal Activity DIS (phytotoxicity rating) [15]: 0
- Post-emerge crop damage RICE (phytotoxicity rating) [16, 31]: 80
- Pre-emerge Herbicidal Activity CAO (phytotoxicity rating) [17]: 40
- Pre-emerge Herbicidal Activity SOH (phytotoxicity rating) [18]: 25
- Pre-emerge Herbicidal Activity CHA (phytotoxicity rating) [19]: 100
- Post-emerge Herbicidal Activity AMR (phytotoxicity rating) [20]: 100
- Pre-emerge Herbicidal Activity ECC (phytotoxicity rating) [21]: 15
- Pre-emerge Herbicidal Activity ABT (phytotoxicity rating) [22]: 60
- Post-emerge Herbicidal Activity CAO (phytotoxicity rating) [23]: 15
- Post-emerge crop damage WHEAT (phytotoxicity rating) [24, 31]: 10
- Post-emerge Herbicidal Activity AML (phytotoxicity rating) [25]: 70
- Pre-emerge crop damage RICE (phytotoxicity rating) [26, 32]: 20
- Post-emerge Herbicidal Activity CHA (phytotoxicity rating) [27]: 85
- Pre-emerge crop damage SOY (phytotoxicity rating) [28, 32]: 10
- Pre-emerge Herbicidal Activity XAS (phytotoxicity rating) [29]: 35
- Pre-emerge Herbicidal Activity AMR (phytotoxicity rating) [30]: 100

Structure (SMILES): C[C@H]1Oc2cc(F)c(-c3nn(C)c(OC(F)F)c3Cl)c3c2N(CC(=O)N3)C1=O [1-55, 8-[-4-Chloro-5-(difluoromethoxy)-1-methyl-1H-pyrazol-3-yl)-9-fluoro-2-R-methyl-5H-pyrazino[1,2,3-de]-1,4-benzoxazine-3,6(2H, 7H)-dione]
- Post-emerge Herbicidal Activity IPH (phytotoxicity rating) [1]: 100
- Post-emerge Herbicidal Activity ECC (phytotoxicity rating) [2]: 95
- Post-emerge Herbicidal Activity ABT (phytotoxicity rating) [3]: 100
- Post-emerge crop damage CORN (phytotoxicity rating) [4, 33]: 15
- Pre-emerge Herbicidal Activity SEV (phytotoxicity rating) [5]: 100
- Pre-emerge Herbicidal Activity DIS (phytotoxicity rating) [6]: 100
- Pre-emerge crop damage CORN (phytotoxicity rating) [7, 33]: 20
- Post-emerge crop damage SOY (phytotoxicity rating) [8, 34]: 75
- Post-emerge Herbicidal Activity SOH (phytotoxicity rating) [9]: 50
- Post-emerge Herbicidal Activity XAS (phytotoxicity rating) [10]: 100
- Pre-emerge Herbicidal Activity IPH (phytotoxicity rating) [11]: 100
- Post-emerge Herbicidal Activity SEV (phytotoxicity rating) [12]: 99
- Pre-emerge crop damage WHEAT (phytotoxicity rating) [13, 35]: 3
- Pre-emerge Herbicidal Activity AML (phytotoxicity rating) [14]: 100
- Post-emerge Herbicidal Activity DIS (phytotoxicity rating) [15]: 35
- Post-emerge crop damage RICE (phytotoxicity rating) [16, 36]: 75
- Pre-emerge Herbicidal Activity CAO (phytotoxicity rating) [17]: 100
- Pre-emerge Herbicidal Activity SOH (phytotoxicity rating) [18]: 100
- Pre-emerge Herbicidal Activity CHA (phytotoxicity rating) [19]: 100
- Post-emerge Herbicidal Activity AMR (phytotoxicity rating) [20]: 100
- Pre-emerge Herbicidal Activity ECC (phytotoxicity rating) [21]: 100
- Pre-emerge Herbicidal Activity ABT (phytotoxicity rating) [22]: 99
- Post-emerge Herbicidal Activity CAO (phytotoxicity rating) [23]: 99
- Post-emerge crop damage WHEAT (phytotoxicity rating) [24, 35]: 50
- Post-emerge Herbicidal Activity AML (phytotoxicity rating) [25]: 85
- Pre-emerge crop damage RICE (phytotoxicity rating) [26, 36]: 40
- Post-emerge Herbicidal Activity CHA (phytotoxicity rating) [27]: 100
- Pre-emerge crop damage SOY (phytotoxicity rating) [28, 34]: 60
- Pre-emerge Herbicidal Activity XAS (phytotoxicity rating) [29]: 95
- Pre-emerge Herbicidal Activity AMR (phytotoxicity rating) [30]: 100

Structure (SMILES): CC1C(=O)N(C)c2c(-c3nn(C)c(OC(F)F)c3Cl)c(F)cc3c2N1C(=O)CO3 (stereo not drawn) [1-62]
- Post-emerge Herbicidal Activity IPH (phytotoxicity rating) [1]: 75
- Post-emerge Herbicidal Activity ECC (phytotoxicity rating) [2]: 30
- Post-emerge Herbicidal Activity ABT (phytotoxicity rating) [3]: 80
- Post-emerge crop damage CORN (phytotoxicity rating) [4, 31]: 0
- Pre-emerge Herbicidal Activity SEV (phytotoxicity rating) [5]: 100
- Pre-emerge Herbicidal Activity DIS (phytotoxicity rating) [6]: 50
- Pre-emerge crop damage CORN (phytotoxicity rating) [7, 32]: 10
- Post-emerge crop damage SOY (phytotoxicity rating) [8, 31]: 0
- Post-emerge Herbicidal Activity SOH (phytotoxicity rating) [9]: 0
- Post-emerge Herbicidal Activity XAS (phytotoxicity rating) [10]: 65
- Pre-emerge Herbicidal Activity IPH (phytotoxicity rating) [11]: 60
- Post-emerge Herbicidal Activity SEV (phytotoxicity rating) [12]: 60
- Pre-emerge crop damage WHEAT (phytotoxicity rating) [13, 32]: 45
- Pre-emerge Herbicidal Activity AML (phytotoxicity rating) [14]: 35
- Post-emerge Herbicidal Activity DIS (phytotoxicity rating) [15]: 30
- Post-emerge crop damage RICE (phytotoxicity rating) [16, 31]: 70
- Pre-emerge Herbicidal Activity CAO (phytotoxicity rating) [17]: 50
- Pre-emerge Herbicidal Activity SOH (phytotoxicity rating) [18]: 90
- Pre-emerge Herbicidal Activity CHA (phytotoxicity rating) [19]: 100
- Post-emerge Herbicidal Activity AMR (phytotoxicity rating) [20]: 99
- Pre-emerge Herbicidal Activity ECC (phytotoxicity rating) [21]: 90
- Pre-emerge Herbicidal Activity ABT (phytotoxicity rating) [22]: 90
- Post-emerge Herbicidal Activity CAO (phytotoxicity rating) [23]: 35
- Post-emerge crop damage WHEAT (phytotoxicity rating) [24, 31]: 50
- Post-emerge Herbicidal Activity AML (phytotoxicity rating) [25]: 90
- Pre-emerge crop damage RICE (phytotoxicity rating) [26, 32]: 50
- Post-emerge Herbicidal Activity CHA (phytotoxicity rating) [27]: 100
- Pre-emerge crop damage SOY (phytotoxicity rating) [28, 32]: 10
- Pre-emerge Herbicidal Activity XAS (phytotoxicity rating) [29]: 25
- Pre-emerge Herbicidal Activity AMR (phytotoxicity rating) [30]: 65
